Usually EC50 stands for the concentration giving half of the maximal effect. Broadly, the IC50 is the concentration that inhibits the measured activity by half. As usually defined, the EC90 is the concentration at which the effect reaches the 90% level.

Two molecules from US20220000860A1, “COMPOUNDS, COMPOSITIONS, AND METHODS FOR TREATING HUMAN IMMUNODEFICIENCY VIRUS” (OYAGEN, INC., priority 2017, published 2022) can be followed below.

Each structure is given as a SMILES string.

Experiment [1] has as its target T1, pNL4-3 Vif (Vif multimerization) (Human immunodeficiency virus type 1 group M subtype B, UniProt P12504).
T1 construct: expressed in transfected cells; host or cells: HEK293T
In words: Vif FqRET Multimerization Assay. The experiment is classed as cell-based, HIV. An excerpt:
The quenched fluorescence resonance energy transfer (FqRET) cell-based assay utilized expression of pNL4-3 Vif (accession no. M19921) tagged separately with either a EGFP fluorophore (EGFP-V5-Vif) or a REACh2 quencher (Vif-HA-REACh2) in the pIRES-P vector. The Vif multimerization assay was established through robotic co-transfection of HEK293T (293T) cells with Turbofect (Thermo) and optimized for input plasmid ratio (1:4, fluorophore to quencher) to achieve maximum quench of fluorescent signal. EGFP fluorescence was quantified 24 hours after transfection with a BioTek Synergy4 plate reader (ex=485 nm, em=528 nm) followed by the addition of 0-30 μM compound. The plates were read a second time 24 hours after compound addition. The differential between the first and second read in each well was quantified relative to the DMSO control to determine the change in relative fluorescence units (ΔRFU)
The interaction of 2 molecules of Vif (i.e. dimerization) enables quenching of Enhanced Green Fluorescent Protein (EGFP) signal by Resonance Energy Accepting Chromophore 2 (REACh2), a dark mutant of yellow fluorescent protein that is capable of accepting the EGFP donor fluorescence and quenching its signal without an acceptor signal.

Another experiment deals with T2, HIV-1 protease (Human immunodeficiency virus type 1 group M subtype B, UniProt P12497).
T2 construct: A 50 μM stock HIV-1 protease (received from Sook-kyung Lee (UNC)); gift from Sook-kyung Lee (UNC)
In words: protease assay (Abz-HIV Protease Substrate FRET). It is filed as biochemical. As for the experimental part:
For the assays listed in Table I, the integrase assay was conducted using the XpressBio HIV-1 Integrase Assay Kit according to the manufacture's protocol. The protease assay was conducted with the Anthranilyl (Abz)-HIV Protease Substrate (Bachem H-2992), a hexapeptide FRET substrate derived from the p24/p15 cleavage site of the viral gag-pol poly-protein, which allows the screening of potential HIV protease inhibitors. 1 mM Abz-Substrate was diluted with Assay Buffer to a working stock of 20 μM. A 50 μM stock HIV-1 protease (received from Sook-kyung Lee (UNC)) was diluted with Assay Buffer (50 mM HEPES, pH 6.8, 150 mM NaCl, and 1% DMSO) to a working stock of 100 nM. 2 μl 100 nM HIV-1 Protease along with 2 uL 20 μM Abz Substrate was added into each well and incubated at room temperature (avoiding light) for 1 hour before being read on an Envision plate reader (Perkin Elmer) excitation at 280 nm, emission at >435 nm. The reverse transcriptase assay utilized purified recombinant HIV (pNL4-3) heterodimeric (p66/p51) Reverse Transcriptase (RT) that was purchased from a commercially available source. The assay was performed in 96-well filter plate, where RT activity was determined by the incorporation of radiolabeled deoxyribonucleotides into the newly synthesized DNA strand. The RT reaction mixture contained in vitro transcribed viral RNA derived from the HIV-1NL4-3 5′-LTR region (position 454 to 652) and primer that is complementary to the primer binding site (PBS, nucleotide residues nucleotides 636 to 652), radiolabeled deoxyribonucleotide, dNTPs and reverse transcriptase. Briefly, the reaction was carried out in a volume of 50 μl containing 50 mM Tris HCl, pH 7.8, 50 mM KCl, 5 mM MgCl2, 1 mM DTT, 50 μM each of dATP, dCTP, dGTP, 50 nM dTTP, 1 μCi of [^3H] dTTP (70-90 Ci/mM) and 5 nM template/primer. The reaction was initiated by the addition of 10 nM RT. For compound screening, serially diluted test articles were added to the reaction followed by the addition of RT. The reaction mixture was incubated at 37° C. for 1 h, and then quenched by the addition of ice-cold trichloroacetic acid (TCA) to the final concentration of 10%. The plate was incubated at 4° C. for 1 h to precipitate the synthesized DNA, then rinsed 3-times with 10% TCA and 1 time with 70% ethanol. After addition of 25 μl scintillation fluid to completely dried wells, radioactivity is counted by MicroBeta scintillation counter. The reduction of radioactivity represents the potency of compound inhibition.

For a further experiment, the system named is 98US_MSC5016 (Subtype C). In words: PBMC Acute Infection, 98US_MSC5016. The experiment is classed as cell-based, HIV. The conditions noted are these: Human immunodeficiency virus 1, PBMC, isolate 98US_MSC5016, subtype C, RT activity readout; for EC50: read-out: EC50; for EC90: read-out: EC90. The procedure: PHA-stimulated cells from at least two normal donors were pooled (i.e. mixed together), diluted in fresh medium to a final concentration of 1×10^6 cells/mL, and plated in the interior wells of a 96-well round bottom microplate at 50 μL/well (5×10^4 cells/well). Pooling of mononuclear cells from more than one donor was used to minimize the variability observed between individual donors in quantitative and qualitative differences in HIV infection and overall response to the PHA and IL-2 of primary lymphocyte populations. Each plate contained virus control wells (cells plus virus) and experimental wells (drug plus cells plus virus) of either 00KE_KER2008 (Subtype A), IIIB (Subtype B), or 98US_MSC5016 (Subtype C). Test drug dilutions were prepared at a 2×concentration and 100 μL of each concentration was placed in appropriate wells. Fifty μL of a predetermined dilution of virus stock was placed in each test well (final MOI≅0.1). After this period, cell-free supernatant samples were collected for analysis of reverse transcriptase (RT) activity with an RT assay. […] In the Table below SI50=CC50/EC50 and SI90=CC90/EC90.

T1 sequence (P12504 whole entry): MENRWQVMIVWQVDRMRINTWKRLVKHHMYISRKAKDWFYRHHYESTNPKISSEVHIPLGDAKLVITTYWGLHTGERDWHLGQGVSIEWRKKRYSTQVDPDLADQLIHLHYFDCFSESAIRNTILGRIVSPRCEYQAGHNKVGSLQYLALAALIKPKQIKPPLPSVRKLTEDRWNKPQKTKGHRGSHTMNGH

As for `CCc1c2c(nc3ccc(N)cc13)-c1cc3c(c(=O)n1C2)CNC(=O)[C@]3(O)CC` [Compound O5-SN, (S)-9-Amino-4,11-diethyl-4-hydroxy-1,2-dihydroquinolino[2′,3′:3,4]pyrrolo[1,2-b][2,7]naphthyridine-3,14(4H,12H)-dione], in experiment [1], the EC50 stood at 362 nM and the “Vif multimerization (result in words)” value was “block”. For the same molecule, at HIV-1 protease, the half-inhibitory concentration (IC50) was greater than 100000 nM and the “activity against HIV protease (result in words)” value is “inactive”. In the experiment with 98US_MSC5016 (Subtype C), the EC50 was found to be 6 nM and the EC90 turned out to be 20 nM.

Regarding `CCc1c2c(nc3ccc(O)cc13)-c1cc3c(c(=O)n1C2)CNC(=O)[C@]3(O)CC` [SN38-L, (S)-4,11-Diethyl-4,9-dihydroxy-1,2-dihydroquinolino[2′,3′:3,4]pyrrolo[1,2-b][2,7]naphthyridine-3,14(4H,12H)-dione], in experiment [1], the EC50 is 378 nM and the “Vif multimerization (result in words)” value was “block”. On HIV-1 protease, the IC50 is greater than 100000 nM and the “activity against HIV protease (result in words)” value is “inactive”. For the same molecule, in the experiment on 98US_MSC5016 (Subtype C), the EC50 came to 4 nM and the EC90 is 16 nM.
